Assay results reported in ChEMBL document CHEMBL1131889, “Synthesis and acetylcholinesterase inhibitory activity of huperzine A-E2020 combined compound” (Bioorg Med Chem Lett, 1999).

Biological target: T1, Acetylcholinesterase (Rattus norvegicus, UniProt P37136)
T1 sequence (P37136 whole entry): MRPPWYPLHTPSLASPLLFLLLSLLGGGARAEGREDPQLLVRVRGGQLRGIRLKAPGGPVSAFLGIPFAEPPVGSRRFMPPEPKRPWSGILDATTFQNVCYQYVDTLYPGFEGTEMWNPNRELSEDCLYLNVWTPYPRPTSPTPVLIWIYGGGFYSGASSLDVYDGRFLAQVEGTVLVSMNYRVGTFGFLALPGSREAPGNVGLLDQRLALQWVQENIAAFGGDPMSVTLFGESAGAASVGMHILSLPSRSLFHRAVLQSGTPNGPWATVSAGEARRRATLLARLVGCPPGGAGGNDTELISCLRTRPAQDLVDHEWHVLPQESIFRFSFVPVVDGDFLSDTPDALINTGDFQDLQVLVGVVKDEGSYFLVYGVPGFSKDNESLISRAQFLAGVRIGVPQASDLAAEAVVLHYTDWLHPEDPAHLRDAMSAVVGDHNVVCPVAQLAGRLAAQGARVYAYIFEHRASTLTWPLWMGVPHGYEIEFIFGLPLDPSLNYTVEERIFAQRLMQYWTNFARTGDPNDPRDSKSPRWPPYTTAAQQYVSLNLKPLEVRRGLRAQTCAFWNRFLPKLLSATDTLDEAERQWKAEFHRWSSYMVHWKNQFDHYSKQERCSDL
Assay: Inhibitory activity against Acetylcholinesterase (AChE) in rat brain hippocampal crude homogenate
Type: tissue-based, Hippocampus

Row | Compound | IC50
1 | COc1ccc2c(n1)CCC(OC)C2(C)NC(=O)C1CCN(Cc2ccccc2)CC1 (stereo not drawn) | 17.2 µM
2 | CC1(NCC2CCN(Cc3ccccc3)CC2)c2ccc(O)nc2CCC1O (stereo not drawn) | > 190 µM
3 | COc1ccc2c(n1)CCC(OC)C2(C)NCC1CCN(Cc2ccccc2)CC1 (stereo not drawn) | > 177 µM
